Here are results for 11 compounds from patent publication US4156724A, “N-acylamino-alpha-arylacetamido cephalosporins and antibacterial compositions and methods containing them” (Sumitomo Chemical Company, Limited, priority 1974, dated 1979).

In brackets after ≈: the same amount, converted by molar mass.

What all share (assay type): cell-based
In assay [1] the test system is Staphylococcus aureus 209 P. The assay can be described thus: Minimum Inhibitory Concentration, Staphylococcus aureus 209 P. As to conditions: Staphylococcus aureus 209 P; read-out: Minimum Inhibitory Concentration. The protocol: (§1) anti-microbial activity tests were carried out on the compounds obtained in the Examples.
Assay [2] relates to Staphylococcus aureus FS 289. The experiment in a line: Minimum Inhibitory Concentration, Staphylococcus aureus FS 289. As to conditions: FS289; Staphylococcus aureus FS 289, strain resistant to penicillin; read-out: Minimum Inhibitory Concentration. The protocol: as §1
*Staphylococcus aureus FS 289: strain resistant to penicillin

A further assay relates to Escherichia coli NIHJ. The assay can be described thus: Minimum Inhibitory Concentration, Escherichia coli NIHJ. As to conditions: Escherichia coli NIHJ; read-out: Minimum Inhibitory Concentration. As for the experimental part:
as §1

For assay [3], the system named is Klebsiella pneumoniae 602. The assay can be described thus: Minimum Inhibitory Concentration, Klebsiella pneumoniae 602. The following applies: Klebsiella pneumoniae, 602, Klebsiella pneumoniae 602; read-out: Minimum Inhibitory Concentration. The protocol: as §1
The test system of a further assay is Proteus vulgaris HX 19. The experiment in a line: Minimum Inhibitory Concentration, Proteus vulgaris HX 19. As to conditions: HX19; Proteus vulgaris HX 19; read-out: Minimum Inhibitory Concentration. The protocol:
as §1

Assay [4] relates to Pseudomonas aeruginosa 104. The assay can be described thus: Minimum Inhibitory Concentration, Pseudomonas aeruginosa 104. As to conditions: Pseudomonas aeruginosa 104; read-out: Minimum Inhibitory Concentration. As for the experimental part: as §1
The test system of another assay is Serratia No. 72. The assay can be described thus: Minimum Inhibitory Concentration, Serratia No. 72. As for the experimental part:
as §1

Assay [5] has as its system Enterobacter aerogeneus No. 75. The experiment in a line: Minimum Inhibitory Concentration, Enterobacter aerogeneus No. 75. The following applies: Enterobacter aerogeneus No. 75; read-out: Minimum Inhibitory Concentration. As for the experimental part:
as §1

Take `Cn1nnnc1SCC1=C(C(=O)O)N2C(=O)C(NC(=O)C(NC(=O)c3cnc4cccnc4c3O)c3ccc(O)c(O)c3)C2SC1` (stereo not shown) [Example 167]: the MIC in assay [1] amounted to 1.56 µg/mL (≈ 2.34 µM); in assay [2], 6.25 µg/mL (≈ 9.39 µM); in the assay with Escherichia coli NIHJ it was 1.56 µg/mL (≈ 2.34 µM); in assay [3] it was 1.56 µg/mL (≈ 2.34 µM); with Proteus vulgaris HX 19, 0.2 µg/mL (≈ 0.3 µM); in assay [4], 3.13 µg/mL (≈ 4.7 µM). The values for the MIC (in the assay on Serratia No. 72; in assay [5]) were 12.5 µg/mL (≈ 18.8 µM) and 3.13 µg/mL (≈ 4.7 µM), respectively.
As to `Cc1ccc2c(O)c(C(=O)NC(C(=O)NC3C(=O)N4C(C(=O)O)=C(CSc5nnc(C)s5)CSC34)c3cccc(O)c3)cnc2n1` (stereo not shown) [Example 168], the MIC in assay [1] was determined as 1.56 µg/mL (≈ 2.29 µM); in assay [2] it was 12.5 µg/mL (≈ 18.4 µM); with Escherichia coli NIHJ it was 12.5 µg/mL (≈ 18.4 µM); in assay [3] it was 6.25 µg/mL (≈ 9.19 µM); with Proteus vulgaris HX 19, 0.78 µg/mL (≈ 1.15 µM); in assay [4], 12.5 µg/mL (≈ 18.4 µM). In addition, the MIC in the assay with Serratia No. 72 stood at 50 µg/mL (≈ 73.6 µM); in assay [5], 25 µg/mL (≈ 36.8 µM).
For `O=C(O)C1=C(CSc2cnn[nH]2)CSC2C(NC(=O)C(NC(=O)c3cnc4cccnc4c3O)c3cccc(O)c3)C(=O)N12` (stereo not shown) [Example 169], the MIC in assay [1] came to 0.78 µg/mL (≈ 1.23 µM); in assay [2] it was 6.25 µg/mL (≈ 9.85 µM); in the assay with Escherichia coli NIHJ, 3.13 µg/mL (≈ 4.93 µM); in assay [3] it was 1.56 µg/mL (≈ 2.46 µM); in the assay on Proteus vulgaris HX 19, 0.1 µg/mL (≈ 0.158 µM); in assay [4] it was 3.13 µg/mL (≈ 4.93 µM). Also, the MIC in the assay on Serratia No. 72 is 25 µg/mL (≈ 39.4 µM); in assay [5] it was 3.13 µg/mL (≈ 4.93 µM).
On to `O=C(O)C1=C(CSc2ccc(O)nn2)CSC2C(NC(=O)C(NC(=O)c3cnc4cccnc4c3O)c3ccc(O)cc3)C(=O)N12` (stereo not shown) [Example 170], for which the MIC worked out at 0.78 µg/mL (≈ 1.18 µM) in assay [1]; 6.25 µg/mL (≈ 9.45 µM) in assay [2]; 6.25 µg/mL (≈ 9.45 µM) in the assay with Escherichia coli NIHJ; 1.56 µg/mL (≈ 2.36 µM) in assay [3]; 0.1 µg/mL (≈ 0.151 µM) in the assay on Proteus vulgaris HX 19; 3.13 µg/mL (≈ 4.73 µM) in assay [4]. Besides, the MIC against Serratia No. 72 is 25 µg/mL (≈ 37.8 µM); in assay [5], 6.25 µg/mL (≈ 9.45 µM).
As for `O=C(O)C1=C(CSc2nncs2)CSC2C(NC(=O)C(NC(=O)c3cnc4cccnc4c3O)c3ccc(O)c(O)c3)C(=O)N12` (stereo not shown) [Example 171], the MIC in assay [1] was found to be 1.56 µg/mL (≈ 2.34 µM); in assay [2], 12.5 µg/mL (≈ 18.7 µM); in the assay on Escherichia coli NIHJ, 3.13 µg/mL (≈ 4.69 µM); in assay [3] it was 1.56 µg/mL (≈ 2.34 µM); in the assay on Proteus vulgaris HX 19 it was 0.2 µg/mL (≈ 0.3 µM); in assay [4] it was 3.13 µg/mL (≈ 4.69 µM). The figures for the MIC (with Serratia No. 72; in assay [5]) were 25 µg/mL (≈ 37.4 µM) and 3.13 µg/mL (≈ 4.69 µM), respectively.
On to `COc1cnc2c(O)c(C(=O)NC(C(=O)NC3C(=O)N4C(C(=O)O)=C(CSc5nnnn5C)CSC34)c3ccc(O)cc3)cnc2n1` (stereo not shown) [Example 172], for which the MIC in assay [1] worked out at 0.78 µg/mL (≈ 1.15 µM); in assay [2] it was 12.5 µg/mL (≈ 18.4 µM); with Escherichia coli NIHJ it was 3.13 µg/mL (≈ 4.6 µM); in assay [3] it was 3.13 µg/mL (≈ 4.6 µM); in the assay with Proteus vulgaris HX 19, 0.78 µg/mL (≈ 1.15 µM); in assay [4] it was 6.25 µg/mL (≈ 9.18 µM). Moreover, the MIC in the assay with Serratia No. 72 worked out at 25 µg/mL (≈ 36.7 µM); in assay [5], 6.25 µg/mL (≈ 9.18 µM).
With `CSc1ncc2c(O)c(C(=O)NC(C(=O)NC3C(=O)N4C(C(=O)O)=C(CSc5nnnn5C)CSC34)c3ccc(O)cc3)nnc2n1` (stereo not shown) [Example 173], the MIC in assay [1] was 0.78 µg/mL (≈ 1.12 µM); in assay [2], 12.5 µg/mL (≈ 17.9 µM); in the assay on Escherichia coli NIHJ, 12.5 µg/mL (≈ 17.9 µM); in assay [3], 6.25 µg/mL (≈ 8.96 µM); in the assay with Proteus vulgaris HX 19 it was 0.78 µg/mL (≈ 1.12 µM); in assay [4] it was 6.25 µg/mL (≈ 8.96 µM). Also, the MIC in the assay on Serratia No. 72 worked out at 50 µg/mL (≈ 71.7 µM); in assay [5] it was 25 µg/mL (≈ 35.8 µM).
For the compound `Cn1nnnc1SCC1=C(C(=O)O)N2C(=O)C(NC(=O)C(NC(=O)c3cnc4ccc(O)nc4c3O)c3ccc(O)cc3)C2SC1` (stereo not shown) [Example 174], the MIC stood at 0.78 µg/mL (≈ 1.17 µM) in assay [1]; 12.5 µg/mL (≈ 18.8 µM) in assay [2]; 3.13 µg/mL (≈ 4.7 µM) with Escherichia coli NIHJ; 1.56 µg/mL (≈ 2.34 µM) in assay [3]; 0.39 µg/mL (≈ 0.586 µM) in the assay on Proteus vulgaris HX 19; 3.13 µg/mL (≈ 4.7 µM) in assay [4]. Moreover, the figures for the MIC (against Serratia No. 72; in assay [5]) were 12.5 µg/mL (≈ 18.8 µM) and 3.13 µg/mL (≈ 4.7 µM), respectively.
As for `Cn1nnnc1SCC1=C(C(=O)O)N2C(=O)C(NC(=O)C(NC(=O)c3cnc4c(O)ccnc4c3O)c3ccc(O)cc3)C2SC1` (stereo not shown) [Example 175], the MIC stood at 0.78 µg/mL (≈ 1.17 µM) in assay [1]; 12.5 µg/mL (≈ 18.8 µM) in assay [2]; 3.13 µg/mL (≈ 4.7 µM) with Escherichia coli NIHJ; 3.13 µg/mL (≈ 4.7 µM) in assay [3]; 0.39 µg/mL (≈ 0.586 µM) with Proteus vulgaris HX 19; 3.13 µg/mL (≈ 4.7 µM) in assay [4]. The MIC came to 12.5 µg/mL (≈ 18.8 µM) in the assay on Serratia No. 72 and 6.25 µg/mL (≈ 9.39 µM) in assay [5].
Take `O=C(O)C1=C(CSc2nnc(CO)s2)CSC2C(NC(=O)C(NC(=O)c3cnccc3O)c3ccc(O)cc3)C(=O)N12` (stereo not shown) [Example 176]: the MIC is 0.39 µg/mL (≈ 0.618 µM) in assay [1]; 6.25 µg/mL (≈ 9.91 µM) in assay [2]; 6.25 µg/mL (≈ 9.91 µM) with Escherichia coli NIHJ; 6.25 µg/mL (≈ 9.91 µM) in assay [3]; 0.2 µg/mL (≈ 0.317 µM) with Proteus vulgaris HX 19; 12.5 µg/mL (≈ 19.8 µM) in assay [4]. For the same compound, the MIC was 50 µg/mL (≈ 79.3 µM) against Serratia No. 72 and 12.5 µg/mL (≈ 19.8 µM) in assay [5].
Consider `O=C(O)C1=C(CSc2ccc(O)nn2)CSC2C(NC(=O)C(NC(=O)c3cnccc3O)c3ccc(O)cc3)C(=O)N12` (stereo not shown) [Example 177], for which the MIC was determined as 0.39 µg/mL (≈ 0.639 µM) in assay [1]; 6.25 µg/mL (≈ 10.2 µM) in assay [2]; 6.25 µg/mL (≈ 10.2 µM) in the assay on Escherichia coli NIHJ; 6.25 µg/mL (≈ 10.2 µM) in assay [3]; 0.2 µg/mL (≈ 0.328 µM) in the assay on Proteus vulgaris HX 19; 12.5 µg/mL (≈ 20.5 µM) in assay [4]. The MIC was 100 µg/mL (≈ 164 µM) in the assay on Serratia No. 72 and 12.5 µg/mL (≈ 20.5 µM) in assay [5].
